Reference: PubChem BioAssay (NCI)
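Exposure lasted 48 hours, with cells grown in 96-well plates and compounds tested at five concentrations. GI50 marks 50% less growth. TGI marks complete inhibition of growth.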

How the values were obtained:
Experiment in all cases: NCI tumour cell line growth inhibition, 48 h
HOP-92 NSCLC = tested on: HOP-92 NSCLC
LOX IMVI melanoma = tested on: LOX IMVI melanoma
HT29 colon = tested on: HT29 colon
MOLT-4 leukemia = tested on: MOLT-4 leukemia
HL-60(TB) leukemia = tested on: HL-60(TB) leukemia
HS 578T breast = tested on: HS 578T breast
SW-620 colon = tested on: SW-620 colon
UACC-62 melanoma = tested on: UACC-62 melanoma
SK-OV-3 ovarian = tested on: SK-OV-3 ovarian
KM12 colon = tested on: KM12 colon
MDA-MB-435 = tested on: MDA-MB-435
MCF7 breast = tested on: MCF7 breast
NCI/ADR-RES ovarian = tested on: NCI/ADR-RES ovarian
HOP-62 NSCLC = tested on: HOP-62 NSCLC
OVCAR-4 ovarian = tested on: OVCAR-4 ovarian
ACHN renal = tested on: ACHN renal
BT-549 breast = tested on: BT-549 breast
SR leukemia = tested on: SR leukemia
RXF 393 renal = tested on: RXF 393 renal
SN12C renal = tested on: SN12C renal
TK-10 renal = tested on: TK-10 renal
SK-MEL-5 melanoma = tested on: SK-MEL-5 melanoma
COLO 205 colon = tested on: COLO 205 colon
MDA-MB-231 breast = tested on: MDA-MB-231 breast
DU-145 prostate = tested on: DU-145 prostate
SNB-75 CNS = tested on: SNB-75 CNS
SNB-19 CNS = tested on: SNB-19 CNS
NCI-H23 lung = tested on: NCI-H23 lung
A498 renal = tested on: A498 renal
MALME-3M melanoma = tested on: MALME-3M melanoma
SF-295 CNS = tested on: SF-295 CNS
EKVX NSCLC = tested on: EKVX NSCLC
NCI-H226 lung = tested on: NCI-H226 lung
HCT-116 colon = tested on: HCT-116 colon
CAKI-1 renal = tested on: CAKI-1 renal
HCC-2998 colon = tested on: HCC-2998 colon
HCT-15 colon = tested on: HCT-15 colon
K-562 leukemia = tested on: K-562 leukemia
OVCAR-8 ovarian = tested on: OVCAR-8 ovarian
A549 NSCLC = tested on: A549 NSCLC
SF-539 CNS = tested on: SF-539 CNS
PC-3 prostate = tested on: PC-3 prostate
NCI-H460 lung = tested on: NCI-H460 lung
M14 melanoma = tested on: M14 melanoma
SK-MEL-2 melanoma = tested on: SK-MEL-2 melanoma
SK-MEL-28 melanoma = tested on: SK-MEL-28 melanoma
CCRF-CEM leukemia = tested on: CCRF-CEM leukemia
T-47D breast = tested on: T-47D breast
UO-31 renal = tested on: UO-31 renal
786-0 renal = tested on: 786-0 renal
IGROV1 ovarian = tested on: IGROV1 ovarian
UACC-257 melanoma = tested on: UACC-257 melanoma
OVCAR-5 ovarian = tested on: OVCAR-5 ovarian
RPMI-8226 leukemia = tested on: RPMI-8226 leukemia
U251 CNS = tested on: U251 CNS
SF-268 CNS = tested on: SF-268 CNS
NCI-H522 lung = tested on: NCI-H522 lung
OVCAR-3 ovarian = tested on: OVCAR-3 ovarian

Cc1ccc2c(-c3ccnc(Nc4ccc5c(c4)OCCO5)n3)c(-c3ccc(C(F)(F)F)cc3)nn2n1
GI50 (HOP-92 NSCLC): 1.4 µM
TGI (HOP-92 NSCLC): 19.2 µM
GI50 (LOX IMVI melanoma): 1.5 µM
TGI (LOX IMVI melanoma): 6.68 µM
GI50 (HT29 colon): 4.42 µM
TGI (HT29 colon): > 25 µM
GI50 (MOLT-4 leukemia): 6.89 µM
TGI (MOLT-4 leukemia): > 25 µM
GI50 (HL-60(TB) leukemia): 6.81 µM
TGI (HL-60(TB) leukemia): 19.4 µM
GI50 (HS 578T breast): 12.4 µM
TGI (HS 578T breast): > 25 µM
GI50 (SW-620 colon): > 25 µM
TGI (SW-620 colon): > 25 µM
GI50 (UACC-62 melanoma): 5.84 µM
TGI (UACC-62 melanoma): > 25 µM
GI50 (SK-OV-3 ovarian): 3.8 µM
TGI (SK-OV-3 ovarian): > 25 µM
GI50 (KM12 colon): 14.1 µM
TGI (KM12 colon): > 25 µM
GI50 (MDA-MB-435): 17.2 µM
TGI (MDA-MB-435): > 25 µM
GI50 (MCF7 breast): 5.66 µM
TGI (MCF7 breast): > 25 µM
GI50 (NCI/ADR-RES ovarian): 5.55 µM
TGI (NCI/ADR-RES ovarian): > 25 µM
GI50 (HOP-62 NSCLC): 24.8 µM
TGI (HOP-62 NSCLC): > 25 µM
GI50 (OVCAR-4 ovarian): 8.59 µM
TGI (OVCAR-4 ovarian): > 25 µM
GI50 (ACHN renal): 16.5 µM
TGI (ACHN renal): > 25 µM
GI50 (BT-549 breast): 4.45 µM
TGI (BT-549 breast): > 25 µM
GI50 (SR leukemia): 17 µM
TGI (SR leukemia): > 25 µM
GI50 (RXF 393 renal): 4.39 µM
TGI (RXF 393 renal): > 25 µM
GI50 (SN12C renal): 5.26 µM
TGI (SN12C renal): > 25 µM
GI50 (TK-10 renal): 8.11 µM
TGI (TK-10 renal): > 25 µM
GI50 (SK-MEL-5 melanoma): 2.04 µM
TGI (SK-MEL-5 melanoma): 7.42 µM
GI50 (COLO 205 colon): 3.17 µM
TGI (COLO 205 colon): > 25 µM
GI50 (MDA-MB-231 breast): 1.25 µM
TGI (MDA-MB-231 breast): > 25 µM
GI50 (DU-145 prostate): > 20.6 µM
TGI (DU-145 prostate): > 25 µM
GI50 (SNB-75 CNS): > 8.65 µM
TGI (SNB-75 CNS): > 25 µM
GI50 (SNB-19 CNS): > 25 µM
TGI (SNB-19 CNS): > 25 µM
GI50 (NCI-H23 lung): 14.3 µM
TGI (NCI-H23 lung): > 25 µM
GI50 (A498 renal): 2.13 µM
TGI (A498 renal): 18 µM
GI50 (MALME-3M melanoma): > 25 µM
TGI (MALME-3M melanoma): > 25 µM
GI50 (SF-295 CNS): 7.01 µM
TGI (SF-295 CNS): > 25 µM
GI50 (EKVX NSCLC): 4.72 µM
TGI (EKVX NSCLC): > 25 µM
GI50 (NCI-H226 lung): 11.5 µM
TGI (NCI-H226 lung): > 25 µM
GI50 (HCT-116 colon): 7.32 µM
TGI (HCT-116 colon): > 25 µM
GI50 (CAKI-1 renal): 1.42 µM
TGI (CAKI-1 renal): > 25 µM
GI50 (HCC-2998 colon): 12.3 µM
TGI (HCC-2998 colon): > 25 µM
GI50 (HCT-15 colon): 8.69 µM
TGI (HCT-15 colon): > 25 µM
GI50 (K-562 leukemia): 20.3 µM
TGI (K-562 leukemia): > 25 µM
GI50 (OVCAR-8 ovarian): 8.48 µM
TGI (OVCAR-8 ovarian): > 25 µM
GI50 (A549 NSCLC): 13.3 µM
TGI (A549 NSCLC): > 25 µM
GI50 (SF-539 CNS): > 18.7 µM
TGI (SF-539 CNS): > 25 µM
GI50 (PC-3 prostate): 10.1 µM
TGI (PC-3 prostate): > 25 µM
GI50 (NCI-H460 lung): 5.66 µM
TGI (NCI-H460 lung): > 25 µM
GI50 (M14 melanoma): 3.58 µM
TGI (M14 melanoma): 9.43 µM
GI50 (SK-MEL-2 melanoma): 8.42 µM
TGI (SK-MEL-2 melanoma): > 25 µM
GI50 (SK-MEL-28 melanoma): > 25 µM
TGI (SK-MEL-28 melanoma): > 25 µM
GI50 (CCRF-CEM leukemia): 11.7 µM
TGI (CCRF-CEM leukemia): > 25 µM
GI50 (T-47D breast): 1.78 µM
TGI (T-47D breast): > 25 µM
GI50 (UO-31 renal): 2.41 µM
TGI (UO-31 renal): > 25 µM
GI50 (786-0 renal): > 21.3 µM
TGI (786-0 renal): > 25 µM
GI50 (IGROV1 ovarian): 2.76 µM
TGI (IGROV1 ovarian): > 25 µM
GI50 (UACC-257 melanoma): 4.21 µM
TGI (UACC-257 melanoma): 13.2 µM
GI50 (OVCAR-5 ovarian): 6 µM
TGI (OVCAR-5 ovarian): > 25 µM
GI50 (RPMI-8226 leukemia): 2.13 µM
TGI (RPMI-8226 leukemia): 13.5 µM
GI50 (U251 CNS): 20.8 µM
TGI (U251 CNS): > 25 µM
GI50 (SF-268 CNS): > 25 µM
TGI (SF-268 CNS): > 25 µM
GI50 (NCI-H522 lung): 4.57 µM
TGI (NCI-H522 lung): 21.4 µM
GI50 (OVCAR-3 ovarian): > 23.6 µM
TGI (OVCAR-3 ovarian): > 25 µM
